Data on 2 compounds can be found in US11773092B1, “Pyrido[3,4-b]indol-1-one compounds as antibacterial agents” (KING FAISAL UNIVERSITY, priority 2023, dated 2023).

In general, MIC refers to the smallest concentration in the dilution series that meets the test's criterion for growth inhibition. For orientation: IC50 means the point on the concentration scale where inhibition reaches its midpoint. A low value points to inhibition by little substance.

Test [1] concerns Mycobacterium tuberculosis H37Rv strain. The test can be described thus: Anti-tubercular alamar blue microplate MIC. Format: cell-based. Conditions: 168 h, M. tuberculosis H37Rv, seven days incubation, read-out: anti-mycobacterial activity (MIC).
Another test has as its target T1, DNA gyrase from E. coli (Escherichia coli, UniProt P0AES4+P0AES6).
T1 construct: purchased Inspiralis
The test can be described thus: Inhibitory activity on E. coli DNA gyrase (Inspiralis assay). The class given is biochemical. How it is done: Inhibitory potencies were investigated utilizing the Inspiralis assay on streptavidin-coated 96-well microtiter plates. First, the plates were rehydrated with buffer (20 mM Tris-HCl with pH 7.6, 0.01% w/v BSA, 0.05% v/v Tween 20, 137 mM NaCl) and the biotinylated oligonucleotide was then immobilized. After washing off the unbound oligonucleotide, the enzyme test was performed. […] Reaction solutions were incubated at 37° C. for 30 min. After that, the TF buffer (50 mM NaOAc with pH 5.0, 50 mM NaCl and 50 mM MgCl2) was added to terminate the enzymatic reaction. After additional incubation for 30 min at rt, during which biotinoligonucleotide-plasmid triplex was formed, the unbound plasmid was washed off using TF buffer and SybrGOLD in T10 buffer (10 mM Tris HCl with pH 8.0 and 1 mM EDTA) was added. […] Initial screening was done at 100 or 10 μM concentration of inhibitors. […] GraphPad Prism software was used to calculate the IC50 values. The result is given as the average value of three independent measurements.

The subject of test [2] is Staphylococcus aureus ATCC BAA-1556 (MERSA resistant). Kind of test: In vitro antibacterial activity (CLSI M07-A10 dilution MIC). Format: cell-based. Conditions: ATCCBAA1556. The text has this:
(§1) Staphylococcus epidermidis, Bacillus subtilis, Enterococcus faecium, Enterococcus faecium resistant to VRE, and Gram-negative organisms including Klebsiella pneumonia, Escherichia coli, and Pseudomonas aeruginosa.

Test [3] has as its system Staphylococcus aureus ATCC 29213. The test is described as above. Format: cell-based. Conditions: ATCC29213.
Excerpt: as §1

Test [4] concerns Enterococcus faecium ATCC 51559 (VRE resistant). Described as above. Format: cell-based.
Excerpt: as §1

The subject of test [5] is Klebsiella pneumonia MTCC 618. The description is as above. Format: cell-based. Conditions: Klebsiella pneumoniae, MTCC618.
Excerpt: as §1

Test [6] concerns Bacillus subtilis MTCC 441. The test is described as above. Format: cell-based. Conditions: MTCC441.
Excerpt: as §1

For test [7], the system named is Enterococcus faecium ATCC 35667. Described as above. Format: cell-based. Conditions: ATCC35667.
Excerpt: as §1

Test [8] has as its system Pseudomonas aeruginosa MTCC 741. Described as above. Format: cell-based. To be noted: MTCC741.
Excerpt: as §1

The subject of test [9] is Escherichia coli MTCC 443. Described as above. Format: cell-based.
Excerpt: as §1

In test [10] the test system is Staphylococcus epidermidis. The test is described as above. Format: cell-based.
Excerpt: as §1

The mark [11] stands for this setting: Escherichia coli MTCC 443 + efflux pump inhibitor PAβN (200 μg/mL).

Values after ≈ are worked out from the molar mass of the structure shown. Where two headings read alike, the source gives them in different places. A value given as a limit tells only on which side of the number the result lay.

T1 sequence (P0AES4 whole entry, one chain of several): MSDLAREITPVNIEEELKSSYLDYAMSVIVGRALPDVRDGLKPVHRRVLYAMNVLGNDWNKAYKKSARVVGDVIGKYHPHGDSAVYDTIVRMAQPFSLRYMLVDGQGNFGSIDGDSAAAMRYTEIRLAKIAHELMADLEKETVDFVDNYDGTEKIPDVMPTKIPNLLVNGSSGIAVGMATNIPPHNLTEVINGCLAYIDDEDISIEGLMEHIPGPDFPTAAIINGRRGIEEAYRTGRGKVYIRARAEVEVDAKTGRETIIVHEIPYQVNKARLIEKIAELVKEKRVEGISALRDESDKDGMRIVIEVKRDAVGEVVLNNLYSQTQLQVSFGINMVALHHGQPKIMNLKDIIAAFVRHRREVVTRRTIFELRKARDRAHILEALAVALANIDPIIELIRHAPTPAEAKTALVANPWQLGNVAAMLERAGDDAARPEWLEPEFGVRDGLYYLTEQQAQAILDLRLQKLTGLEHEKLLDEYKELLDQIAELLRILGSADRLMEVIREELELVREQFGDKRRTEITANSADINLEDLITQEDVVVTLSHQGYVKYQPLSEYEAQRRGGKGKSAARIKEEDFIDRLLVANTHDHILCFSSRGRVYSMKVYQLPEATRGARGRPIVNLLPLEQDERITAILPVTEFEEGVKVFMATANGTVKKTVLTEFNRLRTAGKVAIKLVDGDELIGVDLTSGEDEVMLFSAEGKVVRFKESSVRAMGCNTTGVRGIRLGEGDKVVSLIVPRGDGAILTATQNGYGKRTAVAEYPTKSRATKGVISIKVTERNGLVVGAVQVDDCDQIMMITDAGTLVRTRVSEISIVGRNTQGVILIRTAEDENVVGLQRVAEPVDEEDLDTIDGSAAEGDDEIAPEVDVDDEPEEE

Consider `CCCCCN(C)Cc1cc(C(=O)O)ccc1-n1ccc2c([nH]c3c(NC)cc(F)cc32)c1=O` [Compound 6, 4-(6-fluoro-8-(methylamino)-1-oxo-1,9-dihydro-2H-pyrido[3,4-b]indol-2-yl)-3-((methyl(pentyl)amino)methyl)benzoic acid], for which the MIC in [1] was 8 µg/mL (≈ 17.2 µM); in [2] (Staphylococcus aureus ATCC BAA-1556 (MERSA resistant), read-out: MIC), 0.75 µg/mL (≈ 1.61 µM); in [3] (Staphylococcus aureus ATCC 29213, read-out: MIC), 0.75 µg/mL (≈ 1.61 µM); in [4] (Enterococcus faecium ATCC 51559 (VRE resistant), read-out: MIC) it was 0.5 µg/mL (≈ 1.08 µM); in test [5] (Klebsiella pneumonia MTCC 618, read-out: MIC), 1 µg/mL (≈ 2.15 µM); in test [6] (Bacillus subtilis MTCC 441, read-out: MIC), 0.5 µg/mL (≈ 1.08 µM). Further, the minimal inhibitory concentration (MIC) in test [7] (Enterococcus faecium ATCC 35667, read-out: MIC) was found to be 0.5 µg/mL (≈ 1.08 µM); in [8] (Pseudomonas aeruginosa MTCC 741, read-out: MIC), 0.75 µg/mL (≈ 1.61 µM); in test [9] (setting [11]), 0.5 µg/mL; in test [9] (MTCC443, Escherichia coli MTCC 443, read-out: MIC), 8 µg/mL (≈ 17.2 µM); in test [10] (read-out: MIC), 0.75 µg/mL (≈ 1.61 µM). In addition, inhibition against DNA gyrase from E. coli was half-maximal at 0.018 µM (IC50).

As for `CN[C@H](CC(C)C)C(=O)N[C@H]1C(=O)N[C@@H](CC(N)=O)C(=O)N[C@H]2C(=O)N[C@H]3C(=O)N[C@H](C(=O)N[C@H](C(=O)O)c4cc(O)cc(O)c4-c4cc3ccc4O)[C@H](O)c3ccc(c(Cl)c3)Oc3cc2cc(c3O[C@@H]2O[C@H](CO)[C@@H](O)[C@H](O)[C@H]2O[C@H]2C[C@](C)(N)[C@H](O)[C@H](C)O2)Oc2ccc(cc2Cl)[C@H]1O` [Vancomycin, reference compound], the MIC in test [2] (Staphylococcus aureus) is 1 µg/mL (≈ 0.69 µM); in test [3] (Staphylococcus aureus) it was 1 µg/mL (≈ 0.69 µM); in test [4] (Enterococcus faecium), more than 128 µg/mL; in test [5], more than 128 µg/mL; in [6] (Bacillus subtilis), 0.5 µg/mL (≈ 0.345 µM); in test [7] (Enterococcus faecium) it was 0.5 µg/mL (≈ 0.345 µM). Also, the MIC is more than 128 µg/mL in [8] (Pseudomonas aeruginosa); more than 128 µg/mL in test [9] (setting [11]); more than 128 µg/mL in [9] (Escherichia coli, MTCC443); 1 µg/mL (≈ 0.69 µM) in [10].
